Here are results for one compound from US10086039B2, “Lamin A, an activator of longevity/anti-aging SIRT1 protein” (THE UNIVERSITY OF HONG KONG, priority 2012, dated 2018).

Molecules are shown by their SMILES.

One assay concerns AMPK. To be noted: cited from earlier work.
The target in assay [1] is T1, FLAG-SIRT1 binding to lamin A (Homo sapiens, UniProt Q96EB6).
T1 construct: expressed in transfected cells; host or cells: HEK293
T1 sequence (Q96EB6 1-747): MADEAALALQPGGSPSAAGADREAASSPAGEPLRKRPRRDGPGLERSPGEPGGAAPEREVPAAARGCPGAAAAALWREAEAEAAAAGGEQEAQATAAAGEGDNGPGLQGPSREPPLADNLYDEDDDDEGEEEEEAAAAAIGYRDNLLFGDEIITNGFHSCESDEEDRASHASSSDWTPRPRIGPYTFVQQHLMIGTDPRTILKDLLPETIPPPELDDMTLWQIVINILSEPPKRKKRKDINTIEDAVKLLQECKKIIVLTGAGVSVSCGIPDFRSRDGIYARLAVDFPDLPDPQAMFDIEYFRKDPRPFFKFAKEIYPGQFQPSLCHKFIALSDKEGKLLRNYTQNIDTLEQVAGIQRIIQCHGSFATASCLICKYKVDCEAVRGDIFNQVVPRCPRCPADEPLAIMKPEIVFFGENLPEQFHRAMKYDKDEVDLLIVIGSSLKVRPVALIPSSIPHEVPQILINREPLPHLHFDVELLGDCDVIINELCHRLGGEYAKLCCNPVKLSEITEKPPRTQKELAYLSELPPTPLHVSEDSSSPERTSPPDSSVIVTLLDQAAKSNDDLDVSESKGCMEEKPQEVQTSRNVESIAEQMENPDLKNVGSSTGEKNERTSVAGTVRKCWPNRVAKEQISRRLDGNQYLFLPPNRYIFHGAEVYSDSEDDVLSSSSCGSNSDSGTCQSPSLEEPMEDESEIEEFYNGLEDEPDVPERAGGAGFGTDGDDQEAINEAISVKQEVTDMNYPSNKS
T1 sequence (P02545 1-646 partner limits assumed): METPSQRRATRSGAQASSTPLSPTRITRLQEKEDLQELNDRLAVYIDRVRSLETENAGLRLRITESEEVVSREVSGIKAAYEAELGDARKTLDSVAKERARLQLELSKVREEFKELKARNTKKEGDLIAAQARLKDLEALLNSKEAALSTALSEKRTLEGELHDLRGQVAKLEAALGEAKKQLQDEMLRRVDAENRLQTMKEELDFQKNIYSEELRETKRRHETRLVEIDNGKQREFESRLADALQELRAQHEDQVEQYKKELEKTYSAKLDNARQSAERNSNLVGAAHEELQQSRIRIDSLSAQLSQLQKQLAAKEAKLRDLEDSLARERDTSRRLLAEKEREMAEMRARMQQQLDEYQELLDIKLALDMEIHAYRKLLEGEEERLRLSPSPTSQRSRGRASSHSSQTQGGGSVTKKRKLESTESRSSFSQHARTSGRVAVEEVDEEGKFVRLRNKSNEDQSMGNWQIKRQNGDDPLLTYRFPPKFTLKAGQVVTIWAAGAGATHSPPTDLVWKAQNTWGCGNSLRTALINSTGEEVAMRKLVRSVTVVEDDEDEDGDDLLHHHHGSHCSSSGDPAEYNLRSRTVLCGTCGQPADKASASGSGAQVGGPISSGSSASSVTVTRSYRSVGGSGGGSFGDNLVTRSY
In words: Co-immunoprecipitation of FLAG-SIRT1 and lamin A in HEK293 cells. To be noted: dose-dependent per FIG. 3D legend. It counts as cell-based. The method, then: For co-immunoprecipitation, cells were lysed into pre-chilled RIPA buffer containing 300 mM or 500 mM NaCl and protease inhibitors. Primary antibodies or appropriate control IgGs were added to the lysate and incubated for 2 h on a rocking platform at 4° C. before Agarose beads were added and incubated O/N. The beads were washed twice with RIPA buffer, resuspended into Laemmli buffer and boiled, and protein suspension was collected by centrifugation and stored for further analysis.

A further assay has as its system p16ink4a. Put plainly: p16ink4a level in MEFs by Western blotting. To be noted: Zmpste24−/− MEFs. It counts as cell-based, mouse. The method, then:
Western blotting was performed as described previously (Liu et al., 2005). Relative band intensity was measured by IMAGE J® and normalized to corresponding wild-type or untreated controls as indicated.
As resveratrol enhances SIRT1 deacetylase activity by increasing its binding to lamin A, this Example examines the effects of resveratrol treatment on the early senescence in Zmpste24^−/− MEFs. […] As SIRT1 is more highly expressed in stem cells than in somatic differentiated cells and it is critical for maintaining stem cell self-renewal and function (Han et al., 2008; Lee et al., 2011; Saunders et al., 2010), we then tested effects of resveratrol on BMSCs.
Background: In western blotting, separated proteins are transferred to a membrane and probed.

The target of another assay is T2, SIRT1 (Homo sapiens, UniProt Q96EB6).
T2 sequence (Q96EB6 1-747): T1 sequence (Q96EB6 1-747)
Put plainly: SIRT1 deacetylation assay on native full-length acetyl FLAG-p53 (Western blotting, anti-acetyl lysine). The assay is classed as biochemical. More on the design: purchased Biomol (Hamburg, Germany). The method, then: SIRT1 deacetylation assay on fluorophore-conjugated synthetic p53 peptide was performed with SIRT1 Fluorimetric Drug Discovery Kit (Biomol, Hamburg, Germany) according to the manufactory's instruction. Cells were fractionated as described above except that protease inhibitors were NOT included and the nuclear matrix fraction was suspended into the assay buffer provided by the supplier. Different cell fractions or recombinant human lamin A (rhLamin A, Diatheva, Italy) were added in the reaction mix of SIRT1 Fluorimetric Drug Discovery Kit, incubated for 20 min at 37° C., and then the reaction was stopped and fluorescent signal was detected. SIRT1 deacetylase activity on native target was assayed using SIRT1 assay Kit from Sigma (USA). Constructs encoding FLAG-p53 and HA-p300 were co-transfected into HEK293 cells; FLAG-p53 was immunoprecipitated by anti-FLAG M2 Agarose (Sigma) followed by elution with FLAG peptide (Sigma). Purified acetyl FLAG-p53 was incubated with recombinant human SIRT1 (rhSIRT1) and NAD+ for 30 min at 37° C., in the presence or absence of rhLamin A or resveratrol. The acetylation level of FLAG-p53 was determined by Western blotting with pan anti acetyl lysine antibodies.
To further test the effect of rhLamin A on the native target of SIRT1, acetyl p53 was purified by anti-FLAG immunoprecipitation in HEK293 cells ectopically expressing FLAG-p53 and p300, and SIRT1 deacetylation assay was performed as described in Materials and Methods.

For the compound `Oc1ccc(C=Cc2cc(O)cc(O)c2)cc1` [resveratrol], in the assay with AMPK (high doses), the “doses activating AMPK independent of SIRT1” value is no less than 50 µM. Also, the “doses activating AMPK in a SIRT1-dependent manner” value in the assay with AMPK (low doses) is no more than 25 µM. In assay [1], the “binding of FLAG-SIRT1 to lamin A” value is recorded as “enhanced the binding”. In addition, in the assay on p16ink4a, the “elevated levels of p16ink4a” value was “did not reduce”. Moreover, the “activation of SIRT1 deacetylase activity, native full-length FLAG-p53 as substrate” value at SIRT1 (in the presence of rhLamin A) is listed as “activated SIRT1 in a lamin A dose-dependent manner”; at SIRT1 (without rhLamin A) it was “does not directly activate”.
